Assays:
[1] = test system: antibodies in sera from SARS patients (sera 1a, 1b, 2, 6, 37, 62, London, SARS-yellow, SARS-green); assay type: binding, human; parameters: Binding of serum 6 to linear peptides of protein X1 of SARS-CoV Urbani / Binding of serum 37 to linear peptides of protein X1 of SARS-CoV Urbani / Binding of serum 6 to looped/cyclic peptide (PEPSCAN-ELISA) / Binding of serum 37 to looped/cyclic peptide (PEPSCAN-ELISA) / Binding of serum 37 to looped/cyclic peptides of protein X1 of SARS-CoV Urbani / Binding of serum 6 to linear peptides of protein X2 / Binding of serum 37 to linear peptides of protein X2 / Binding of serum 37 to looped/cyclic peptides of protein X2 of SARS-CoV Urbani / Binding of serum 6 to linear peptides of protein M of SARS-CoV Urbani / Binding of serum 37 to linear peptides of protein M of SARS-CoV Urbani / Binding of serum 6 to looped/cyclic peptides of protein M of SARS-CoV Urbani / Binding of serum 37 to looped/cyclic peptides of protein M of SARS-CoV Urbani / Binding of serum 6 to linear peptides of protein X3 of SARS-CoV Urbani / Binding of serum 37 to linear peptides of protein X3 of SARS-CoV Urbani / Binding of serum 37 to looped/cyclic peptides of protein X3 of SARS-CoV Urbani / Binding of serum 6 to linear peptides of protein X4 of SARS-CoV Urbani / Binding of serum 37 to linear peptides of protein X4 of SARS-CoV Urbani / Binding of serum 37 to looped/cyclic peptides of protein X4 of SARS-CoV Urbani / Binding of serum 6 to linear peptides of protein X5 of SARS-CoV Urbani / Binding of serum 37 to linear peptides of protein X5 of SARS-CoV Urbani / Binding of serum 37 to looped/cyclic peptides of protein X5 of SARS-CoV Urbani / Binding of serum 6 to linear peptides of protein N of SARS-CoV Urbani / Binding of serum 37 to linear peptides of protein N of SARS-CoV Urbani / Binding of serum 6 to linear peptide (PEPSCAN-ELISA) / Binding of serum 1a to looped/cyclic peptides of protein N of SARS-CoV Urbani / Binding of serum 1b to looped/cyclic peptides of protein N of SARS-CoV Urbani / Binding of serum 2 to looped/cyclic peptides of protein N of SARS-CoV Urbani / Binding of serum 6 to looped/cyclic peptides of protein N of SARS-CoV Urbani / Binding of serum 37 to looped/cyclic peptides of protein N of SARS-CoV Urbani / Binding of serum 62 to looped/cyclic peptides of protein N of SARS-CoV Urbani / Binding of serum London to looped/cyclic peptides of protein N of SARS-CoV Urbani / Binding of serum SARS-green to looped/cyclic peptides of protein N of SARS-CoV Urbani: unit not given here
[2] = test system: control sera (pooled serum of ten healthy LUMC hospital workers; commercial negative donor pooled serum from the Dutch bloodbank); assay type: binding, human; parameters: Binding of Control serum LUMC to linear peptides / Binding of Control serum Blood-bank to linear peptides / Binding of Control serum LUMC to looped peptides / Binding of Control Serum Blood-Bank to Looped peptides / Binding of Control serum LUMC to linear peptides of the protein M of SARS-CoV Urbani / Binding of Control serum Blood-bank to linear peptides of the protein M of SARS-CoV Urbani / Binding of Control serum LUMC to looped peptides of the protein M of SARS-CoV Urbani / Binding of Control Serum Blood-Bank to Looped peptides of the protein M of SARS-CoV Urbani: unit not given here
[3] = test system: rabbit serum obtained by immunizing a rabbit with the SARS-CoV strain Frankfurt 1; assay type: binding; parameters: Binding of a rabbit serum to linear peptides / Binding of a rabbit serum to looped peptides / Rabbit serum linear peptides / Rabbit serum looped peptides / Binding of a rabbit serum to linear peptides of protein N of SARS-CoV Urbani (Rabbit serum linear peptides) / Binding of a rabbit serum to looped/cyclic peptides of protein N of SARS-CoV Urbani (Rabbit serum looped peptides): unit not given here

LTSLLKTHRMCKYTQ was tested, and the “Binding of serum 1a to linear peptides of protein X2” value [1] was 0.7, the “Binding of serum 1a to looped/cyclic peptides of protein X2 of SARS-CoV Urbani” value [1] was 0.4 and the “Binding of serum 1b to linear peptides of protein X2” value [1] was 0.3. For the same sequence, the “Binding of serum 1b to looped/cyclic peptides of protein X2 of SARS-CoV Urbani” value [1] was 0.3, the “Binding of serum 2 to linear peptides of protein X2” value [1] was 0.5 and the “Binding of serum 2 to looped/cyclic peptides of protein X2 of SARS-CoV Urbani” value [1] was 0.2. For the same sequence, the “Binding of serum 6 to linear peptides of protein X2” value [1] was 0.5, the “Binding of serum 6 to looped/cyclic peptides of protein X2 of SARS-CoV Urbani” value [1] was 0.2 and the “Binding of serum 37 to linear peptides of protein X2” value [1] was 0.6. For the same sequence, the “Binding of serum 37 to looped/cyclic peptides of protein X2 of SARS-CoV Urbani” value [1] was 0.3, the “Binding of serum 62 to linear peptides of protein X2” value [1] was 0.6 and the “Binding of serum 62 to looped/cyclic peptides of protein X2 of SARS-CoV Urbani” value [1] was 0.4. For the same sequence, the “Binding of serum London to linear peptides of protein X2” value [1] was 0.5, the “Binding of serum London to looped/cyclic peptides of protein X2 of SARS-CoV Urbani” value [1] was 0.2 and the “Binding of serum SARS-green to linear peptides of protein X2” value [1] was 0.2. For the same sequence, the “Binding of serum SARS-green to looped/cyclic peptides of protein X2 of SARS-CoV Urbani” value [1] was 0.2, the “Binding of serum SARS-yellow to linear peptides of protein X2” value [1] was 0.4 and the “Binding of serum SARS-yellow to looped/cyclic peptides of protein X2 of SARS-CoV Urbani” value [1] was 0.3. The “Binding of Control Serum Blood-Bank to Looped peptides” value [2] was 0.4, the “Binding of Control serum Blood-bank to linear peptides” value [2] was 0.5 and the “Binding of Control serum LUMC to linear peptides” value [2] was 0.4. For the same sequence, the “Binding of Control serum LUMC to looped peptides” value [2] was 0.5, the “Binding of a rabbit serum to linear peptides” value [3] was 0.3 and the “Binding of a rabbit serum to looped peptides” value [3] was 0.4.

With LVFLILCFTIKRKTE the “Binding of serum 1a to linear peptides of protein X4 of SARS-CoV Urbani” value [1] was 0.7, the “Binding of serum 1a to looped/cyclic peptides of protein X4 of SARS-CoV Urbani” value [1] was 0.7 and the “Binding of serum 1b to linear peptides of protein X4 of SARS-CoV Urbani” value [1] was 0.6. For the same sequence, the “Binding of serum 1b to looped/cyclic peptides of protein X4 of SARS-CoV Urbani” value [1] was 0.4, the “Binding of serum 2 to linear peptides of protein X4 of SARS-CoV Urbani” value [1] was 0.5 and the “Binding of serum 2 to looped/cyclic peptides of protein X4 of SARS-CoV Urbani” value [1] was 0.6. The “Binding of serum 6 to linear peptides of protein X4 of SARS-CoV Urbani” value [1] was 0.7, the “Binding of serum 6 to looped/cyclic peptides of protein X4 of SARS-CoV Urbani” value [1] was 0.7 and the “Binding of serum 37 to linear peptides of protein X4 of SARS-CoV Urbani” value [1] was 0.7. The “Binding of serum 37 to looped/cyclic peptides of protein X4 of SARS-CoV Urbani” value [1] was 0.6, the “Binding of serum 62 to linear peptides of protein X4 of SARS-CoV Urbani” value [1] was 0.8 and the “Binding of serum 62 to looped/cyclic peptides of protein X4 of SARS-CoV Urbani” value [1] was 0.7. For the same sequence, the “Binding of serum London to linear peptides of protein X4 of SARS-CoV Urbani” value [1] was 0.8, the “Binding of serum London to looped/cyclic peptides of protein X4 of SARS-CoV Urbani” value [1] was 0.4 and the “Binding of serum SARS-green to linear peptides of protein X4 of SARS-CoV Urbani” value [1] was 0.7. The “Binding of serum SARS-green to looped/cyclic peptides of protein X4 of SARS-CoV Urbani” value [1] was 0.2, the “Binding of serum SARS-yellow to linear peptides of protein X4 of SARS-CoV Urbani” value [1] was 0.6 and the “Binding of serum SARS-yellow to looped/cyclic peptides of protein X4 of SARS-CoV Urbani” value [1] was 0.7. The “Binding of Control Serum Blood-Bank to Looped peptides” value [2] was 0.8, the “Binding of Control serum Blood-bank to linear peptides” value [2] was 0.8 and the “Binding of Control serum LUMC to linear peptides” value [2] was 0.6. The “Binding of Control serum LUMC to looped peptides” value [2] was 0.6, the “Rabbit serum linear peptides” value [3] was 0.5 and the “Rabbit serum looped peptides” value [3] was 0.6.

With LVFLWLLWPVTLACF the “Binding of serum 1a to linear peptides of protein M of SARS-CoV Urbani” value [1] was 0.7, the “Binding of serum 1a to looped/cyclic peptides of protein M of SARS-CoV Urbani” value [1] was 0.6 and the “Binding of serum 1b to linear peptides of protein M of SARS-CoV Urbani” value [1] was 0.5. The “Binding of serum 1b to looped/cyclic peptides of protein M of SARS-CoV Urbani” value [1] was 0.5, the “Binding of serum 2 to linear peptides of protein M of SARS-CoV Urbani” value [1] was 0.4 and the “Binding of serum 2 to looped/cyclic peptides of protein M of SARS-CoV Urbani” value [1] was 0.7. The “Binding of serum 6 to linear peptides of protein M of SARS-CoV Urbani” value [1] was 0.6, the “Binding of serum 6 to looped/cyclic peptides of protein M of SARS-CoV Urbani” value [1] was 0.6 and the “Binding of serum 37 to linear peptides of protein M of SARS-CoV Urbani” value [1] was 0.6. The “Binding of serum 37 to looped/cyclic peptides of protein M of SARS-CoV Urbani” value [1] was 0.7, the “Binding of serum 62 to linear peptides of protein M of SARS-CoV Urbani” value [1] was 0.8 and the “Binding of serum 62 to looped/cyclic peptides of protein M of SARS-CoV Urbani” value [1] was 0.7. For the same sequence, the “Binding of serum London to linear peptides of protein M of SARS-CoV Urbani” value [1] was 0.7, the “Binding of serum London to looped/cyclic peptides of protein M of SARS-CoV Urbani” value [1] was 0.2 and the “Binding of serum SARS-green to linear peptides of protein M of SARS-CoV Urbani” value [1] was 0.2. The “Binding of serum SARS-green to looped/cyclic peptides of protein M of SARS-CoV Urbani” value [1] was 0.3, the “Binding of serum SARS-yellow to linear peptides of protein M of SARS-CoV Urbani” value [1] was 0.1 and the “Binding of serum SARS-yellow to looped/cyclic peptides of protein M of SARS-CoV Urbani” value [1] was 0.4. For the same sequence, the “Binding of Control Serum Blood-Bank to Looped peptides of the protein M of SARS-CoV Urbani” value [2] was 0.7, the “Binding of Control serum Blood-bank to linear peptides of the protein M of SARS-CoV Urbani” value [2] was 0.5 and the “Binding of Control serum LUMC to linear peptides of the protein M of SARS-CoV Urbani” value [2] was 0.2. The “Binding of Control serum LUMC to looped peptides of the protein M of SARS-CoV Urbani” value [2] was 0.7, the “Rabbit serum linear peptides” value [3] was 0.3 and the “Rabbit serum looped peptides” value [3] was 0.3.

For LVIGFLFLAWIMLLQ, the “Binding of serum 1a to linear peptides of protein M of SARS-CoV Urbani” value [1] was 0.7, the “Binding of serum 1a to looped/cyclic peptides of protein M of SARS-CoV Urbani” value [1] was 0.7 and the “Binding of serum 1b to linear peptides of protein M of SARS-CoV Urbani” value [1] was 0.5. The “Binding of serum 1b to looped/cyclic peptides of protein M of SARS-CoV Urbani” value [1] was 0.6, the “Binding of serum 2 to linear peptides of protein M of SARS-CoV Urbani” value [1] was 0.5 and the “Binding of serum 2 to looped/cyclic peptides of protein M of SARS-CoV Urbani” value [1] was 0.8. For the same sequence, the “Binding of serum 6 to linear peptides of protein M of SARS-CoV Urbani” value [1] was 0.4, the “Binding of serum 6 to looped/cyclic peptides of protein M of SARS-CoV Urbani” value [1] was 0.5 and the “Binding of serum 37 to linear peptides of protein M of SARS-CoV Urbani” value [1] was 0.4. The “Binding of serum 37 to looped/cyclic peptides of protein M of SARS-CoV Urbani” value [1] was 0.7, the “Binding of serum 62 to linear peptides of protein M of SARS-CoV Urbani” value [1] was 0.4 and the “Binding of serum 62 to looped/cyclic peptides of protein M of SARS-CoV Urbani” value [1] was 0.7. The “Binding of serum London to linear peptides of protein M of SARS-CoV Urbani” value [1] was 0.3, the “Binding of serum London to looped/cyclic peptides of protein M of SARS-CoV Urbani” value [1] was 0.2 and the “Binding of serum SARS-green to linear peptides of protein M of SARS-CoV Urbani” value [1] was 0.4. The “Binding of serum SARS-green to looped/cyclic peptides of protein M of SARS-CoV Urbani” value [1] was 0.3, the “Binding of serum SARS-yellow to linear peptides of protein M of SARS-CoV Urbani” value [1] was 0.1 and the “Binding of serum SARS-yellow to looped/cyclic peptides of protein M of SARS-CoV Urbani” value [1] was 0.7. The “Binding of Control Serum Blood-Bank to Looped peptides of the protein M of SARS-CoV Urbani” value [2] was 0.6, the “Binding of Control serum Blood-bank to linear peptides of the protein M of SARS-CoV Urbani” value [2] was 0.6 and the “Binding of Control serum LUMC to linear peptides of the protein M of SARS-CoV Urbani” value [2] was 0.5. The “Binding of Control serum LUMC to looped peptides of the protein M of SARS-CoV Urbani” value [2] was 0.7, the “Rabbit serum linear peptides” value [3] was 0.1 and the “Rabbit serum looped peptides” value [3] was 0.3.

Source: patent publication US20070128217A1 (priority 2003, published 2007)
